According to US9611457B2, “Triazine derivatives as differentiation catalysts” (TECHNISCHE UNIVERSITAET WIEN, priority 2011, dated 2017):

Key:
[1] = test system: Atrial natriuretic factor (ANF) expression, P19 cells; experiment: ANF test (ANF promoter luciferase reporter) in P19 cells; assay type: cell-based, murine; set-up: key to Evaluation (luminescence in relation to the blank): −: decrease of luminescence compared to the blank value; +: measurable increase; ++: at least 1.5-fold increase; +++: at least 2-fold increase; conditions: for ANF expression level / efficiency, stated in words: ANF test, P19 cells (DTAB and summary statements also cover C2C12); for Evaluation (luminescence in relation to the blank) / fold induction at 1 µM: P19 cells (**), compound 1 μM in DMSO, 8 days culture, relative to DMSO blank; for fold induction at 1 µM: Mus musculus, 192 h, read-out: Evaluation (luminescence in relation to the blank)
Excerpt: Atrial natriuretic factor (ANF) or atrial natriuretic peptide (ANP) is a cyclic peptide hormone made up of 28 amino acids, which is predominantly emitted by the muscle cells (myocytes) of the atrium of the heart. It is stored in the atrium as a pro-hormone made of 126 amino acids and is cleaved by serine protease corine into an N-terminal part and the biologically active ANF, which is often used as a cardiac-specific marker protein. In cell differentiation measurements, i.e. in determining the extent to which certain cells have become “cardiac cell-like” by differentiation, often a reporter gene located downstream of the ANF gene is used, as it expression product is easier to detect than the concentration of ANF in a cellular culture, for example, a luciferase gene. Luciferase in an enzyme which catalyzes the oxidation of a luminescent substrate (luciferine). While that happens, light is emitted, and the intensity of that light is correlated with the expression level of ANF and can therefore serve as a measure of ANF expression.
Initial attempts of ANF expression screenings were performed with P19 cells, i.e. murine embryonal carcinoma cells obtained from the ATCC, or C2C12 cells, i.e. a murine myoblast cell line, as models. In preparation, a plasmid was first constructed by amplifying a gene fragment containing a rat ANF promoter region and subcloning it into the PCL3-BV luciferase reporter plasmid of Promega. The P19 cells were temporarily transfected with said plasmid and cultured in Modified Eagle's Medium alpha (MEM-α) with 7.5% neonatal calf serum and 2.5% fetal bovine serum at 37° C. under 5% CO2 in monolayers for 8 days, during which the medium was exchanged three times. The respective compounds were added at about 60% confluence in DMSO as solvents at a concentration of 1 μM or DMSO alone (as a blank). The luminescence of the samples was measured with a Perkin Elmer Victor V 1420 Multilabel Counter. Their increase or decrease in the presence of the compounds of formula (I) is given in Table 1 below in relation to the blank.
The evaluations have the following meanings: • − decrease of luminescence compared to the blank value; • + measurable increase; • ++ at least 1.5-fold increase; • +++ at least 2-fold increase; • * represents C2C12 cells; and • ** represents P19 cells.

**Q.** For `COc1ccc(Nc2ncnc(NCCO)n2)cc1` [(4), 2-[4-(4-methoxyphenylamino)-1,3,5-triazin-2-ylamino]ethanol], which “ANF expression level / efficiency, stated in words” value [1] is on record?
**A.** the poorest measurement results among all compounds

**Q.** And the “Evaluation (luminescence in relation to the blank)” value (shortened to “Evaluation”) [1]?
**A.** −**

**Q.** And the melting point?
**A.** 160 to 164 °C

**Q.** Which “Evaluation” value [1] does the source give for `COC(=O)c1cccc(Nc2nc(Oc3ccccc3)nc(Oc3ccc(OC)cc3)n2)c1` [(11), 3-{[4-(4-methoxyphenoxy)-6-phenoxy-1,3,5-triazin-2-yl]amino}benzoic acid methyl ester] here?
**A.** −**

**Q.** And the melting point?
**A.** 56 to 60 °C

**Q.** For `OCc1cccc(Nc2nc(Oc3ccccc3)nc(Oc3ccccc3)n2)c1` [(40), {3-[(4,6-diphenoxy-1,3,5-triazin-2-yl)amino]phenyl}methanol], which “Evaluation” value [1] is on record?
**A.** +**

**Q.** What about the melting point of the same compound?
**A.** 49 to 52 °C

**Q.** With `CC(C)(C)c1ccc(Oc2nc(Nc3cccc(C(=O)O)c3)nc(Oc3ccccc3)n2)cc1` [(32), 3-{[4-(4-t-butylphenoxy)-6-phenoxy-1,3,5-triazin-2-yl]amino}benzoic acid] as the compound, how does the “Evaluation” value [1] read?
**A.** +**

**Q.** And the melting point?
**A.** 245 to 247 °C

**Q.** For `O=C(O)c1cccc(Nc2nc(Oc3ccccc3)nc(Oc3cccc([N+](=O)[O-])c3)n2)c1` [(35), 3-{[4-(3-nitrophenoxy)-6-phenoxy-1,3,5-triazin-2-yl]amino}benzoic acid], which fold induction at 1 µM [1] is on record?
**A.** ≥ 1.5

**Q.** What about the melting point of the same compound?
**A.** 225 to 228 °C

**Q.** For `O=C(O)c1cccc(Nc2nc(Oc3ccccc3)nc(Oc3ccc(Cl)cc3)n2)c1` [(29), 3-{[4-(4-chlorophenoxy)-6-phenoxy-1,3,5-triazin-2-yl]amino}benzoic acid], which fold induction at 1 µM [1] is on record?
**A.** ≥ 2

**Q.** What about the melting point of the same compound?
**A.** 244 to 247 °C

**Q.** Which results are given for `OCc1cccc(Nc2nc(Oc3ccccc3)nc(Oc3ccc(Cl)cc3)n2)c1` [(41), {3-[(4-(4-chlorophenoxy)-6-phenoxy-1,3,5-triazin-2-yl)amino]phenyl}-methanol]?
**A.** Evaluation (luminescence in relation to the blank) [1]: −** and (41) (p-chloro): −; melting point: 110.5 to 114 °C

**Q.** For `N#Cc1ccc(Oc2nc(Nc3cccc(C(=O)O)c3)nc(Oc3ccccc3)n2)cc1` [(34), 3-{[4-(4-cyanophenoxy)-6-phenoxy-1,3,5-triazin-2-yl]amino}benzoic acid], which “Evaluation” value [1] is on record?
**A.** +**

**Q.** What about the melting point of the same compound?
**A.** 150 °C

**Q.** With `COc1cc(C=O)ccc1Oc1nc(Nc2cccc(C(=O)O)c2)nc(Oc2ccccc2)n1` [(36), 3-{[4-(4-formyl-2-methoxyphenoxy)-6-phenoxy-1,3,5-triazin-2-yl]-amino}benzoic acid] as the compound, how does the fold induction at 1 µM [1] read?
**A.** ≥ 2

**Q.** What about the “increased ANF expression (peak value)” value ([1]; P19 cells, 1 μM, relative to blank) of the same compound?
**A.** more than threefold

**Q.** And the melting point?
**A.** 217.5 to 220 °C

**Q.** Which fold induction at 1 µM [1] does the source give for `COC(=O)c1cccc(Nc2nc(Oc3ccccc3)nc(Oc3cccc(Cl)c3)n2)c1` [(8), 3-{[4-(3-chlorophenoxy)-6-phenoxy-1,3,5-triazin-2-yl]amino}benzoic acid methyl ester] here?
**A.** ≥ 1.5

**Q.** What about the melting point of the same compound?
**A.** 151.5 to 156 °C

**Q.** Which results are given for `COc1ccc(Oc2nc(Nc3cccc(C(=O)O)c3)nc(Oc3ccc(C#N)cc3)n2)cc1` [(38), 3-{[4-(4-cyanophenoxy)-6-(4-methoxyphenoxy)-1,3,5-triazin-2-yl]-amino}benzoic acid]?
**A.** fold induction at 1 µM [1]: ≥ 1.5; melting point: 240.5 to 242.5 °C

**Q.** With `O=C(O)c1cccc(Nc2nc(Oc3ccccc3)nc(Oc3ccccc3Cl)n2)c1` [(31), 3-{[4-(2-chlorophenoxy)-6-phenoxy-1,3,5-triazin-2-yl]amino}benzoic acid] as the compound, how does the fold induction at 1 µM [1] read?
**A.** ≥ 1.5

**Q.** And the melting point?
**A.** 249.5 to 251.5 °C

**Q.** For `CCNc1nc(Cl)nc(Nc2ccc(OC)cc2)n1` [(3), 6-chloro-N2-ethyl-N4-(4-methoxyphenyl)-1,3,5-triazin-2.4-diamine], which “ANF expression level / efficiency, stated in words” value [1] is on record?
**A.** the poorest measurement results among all compounds

**Q.** And the “Evaluation” value [1]?
**A.** −**

**Q.** And the melting point?
**A.** 174 to 176 °C

**Q.** Which “Evaluation” value [1] does the source give for `COc1ccc(Oc2nc(Nc3cccc(CO)c3)nc(Oc3ccccc3)n2)cc1` [(45), {3-[(4-(4-methoxyphenoxy)-6-phenoxy-1,3,5-triazin-2-yl)amino]-phenyl}methanol] here?
**A.** +**

**Q.** Which results are given for `CCOC(=O)c1ccc(Nc2nc(Oc3ccccc3)nc(Oc3ccccc3)n2)cc1` [(5), 4-[(4.6-diphenoxy-1,3,5-triazin-2-yl)amino]benzoic acid ethyl ester]?
**A.** Evaluation (luminescence in relation to the blank) [1]: −**; melting point: 159 to 161 °C

**Q.** With `COC(=O)c1cccc(Nc2nc(Oc3ccccc3)nc(Oc3ccccc3Cl)n2)c1` [(9), 3-{[4-(2-chlorophenoxy)-6-phenoxy-1,3,5-triazin-2-yl]amino}benzoic acid methyl ester] as the compound, how does the “Evaluation” value [1] read?
**A.** −**

**Q.** And the melting point?
**A.** 139 to 141.5 °C

**Q.** What does the source list for `COC(=O)c1cccc(Nc2nc(Oc3ccccc3)nc(Oc3ccc(C#N)cc3)n2)c1` [(12), 3-{[4-(4-cyanophenoxy)-6-phenoxy-1,3,5-triazin-2-yl]amino}benzoic acid methyl ester]?
**A.** Evaluation (luminescence in relation to the blank) [1]: −**; melting point: 116.5 to 120 °C

**Q.** With `OCc1ccc(Nc2nc(Oc3ccccc3)nc(Oc3ccccc3)n2)cc1` [(39), {4-[(4,6-diphenoxy-1,3,5-triazin-2-yl)amino]phenyl}methanol] as the compound, how does the fold induction at 1 µM [1] read?
**A.** ≥ 2

**Q.** What about the melting point of the same compound?
**A.** 152.5 to 154 °C

**Q.** With `O=C(O)c1cccc(Nc2nc(Oc3ccccc3)nc(Oc3cccc(Cl)c3)n2)c1` [(30), 3-{[4-(3-chlorophenoxy)-6-phenoxy-1,3,5-triazin-2-yl]amino}benzoic acid] as the compound, how does the fold induction at 1 µM [1] read?
**A.** ≥ 1.5

**Q.** What about the melting point of the same compound?
**A.** 227 to 230 °C

**Q.** For `COC(=O)c1cccc(Nc2nc(Oc3ccccc3)nc(Oc3cccc([N+](=O)[O-])c3)n2)c1` [(13), 3-{[4-(3-nitrophenoxy)-6-phenoxy-1,3,5-triazin-2-yl]amino}benzoic acid methyl ester], which “Evaluation” value [1] is on record?
**A.** −**

**Q.** Which “Evaluation” value [1] does the source give for `OCc1cccc(Nc2nc(Oc3ccccc3)nc(Oc3cccc(Cl)c3)n2)c1` [(42), {3-[(4-(3-chlorophenoxy)-6-phenoxy-1,3,5-triazin-2-yl)amino]phenyl}-methanol] here?
**A.** +** and (42) (m-chloro): +

**Q.** Which “Evaluation” value [1] does the source give for `COC(=O)c1cccc(Nc2nc(Oc3ccccc3)nc(Oc3ccc(C(C)(C)C)cc3)n2)c1` [(10), 3-{[4-(4-t-butylphenoxy)-6-phenoxy-1,3,5-triazin-2-yl]amino}benzoic acid methyl ester] here?
**A.** −**

**Q.** What about the melting point of the same compound?
**A.** 85 to 86 °C

**Q.** Which fold induction at 1 µM [1] does the source give for `CC(C)(C)c1ccc(Oc2nc(Nc3cccc(CO)c3)nc(Oc3ccccc3)n2)cc1` [(44), {3-[(4-(4-t-butylphenoxy)-6-phenoxy-1,3,5-triazin-2-yl)amino]phenyl}-methanol] here?
**A.** ≥ 2

**Q.** What about the melting point of the same compound?
**A.** 47 to 50 °C

**Q.** What does the source list for `OCc1cccc(Nc2nc(Oc3ccccc3)nc(Oc3ccccc3Cl)n2)c1` [(43), {3-[(4-(2-chlorophenoxy)-6-phenoxy-1,3,5-triazin-2-yl)amino]phenyl}-methanol]?
**A.** Evaluation (luminescence in relation to the blank) [1]: −** and (43) (o-chloro): −; melting point: 52 to 54 °C

**Q.** For `COC(=O)c1cccc(Nc2nc(Oc3ccccc3)nc(Oc3ccc(Cl)cc3)n2)c1` [(7), 3-{[4-(4-chlorophenoxy)-6-phenoxy-1,3,5-triazin-2-yl]amino}benzoic acid methyl ester], which “Evaluation” value [1] is on record?
**A.** −**

**Q.** What about the melting point of the same compound?
**A.** 186.5 to 188 °C

**Q.** What does the source list for `COc1ccc(Oc2nc(Nc3cccc(C(=O)O)c3)nc(Oc3ccccc3)n2)cc1` [(33), 3-{[4-(4-methoxyphenoxy)-6-phenoxy-1,3,5-triazin-2-yl]amino}benzoic acid]?
**A.** Evaluation (luminescence in relation to the blank) [1]: +**; melting point: 233 to 236.5 °C

**Q.** For `COc1ccc(Oc2nc(Nc3cccc(C(=O)OC(C)(C)C)c3)nc(Oc3ccc(C=O)cc3OC)n2)cc1` [(27), 3-{[4-(4-formyl-2-methoxyphenoxy)-6-(4-methoxyphenoxy)-1,3,5-triazin-2-yl]amino}benzoic acid t-butyl ester], which melting point is on record?
**A.** 88 to 106 °C
